Data from PubChem BioAssay AID2060484 (Molecular Pharmacology Branch, DTP, NCI, 2025).

System: SUM149PT spheroids with HUVEC/MSC, viability
Assay: Anticancer human tumor SUM149PT cell line growth inhibition [GQUAD];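 also: spheroids exposed to drugs for seven days before readout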;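 as to viability, T/C: percent viability relative to DMSO vehicle control taken as 100%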
Conditions: for IC50: curve of first compound; for viability, T/C: stronger effect = lower value
Procedure, shortened: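 Tumor cells were grown as complex spheroids with HUVEC endothelial cells and mesenchymal stem cells as stroma. G-quadruplex stabilizers were combined with targeted agents over half-log dilutions from near the clinical Cmax, or from 10 microM.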

[1] = second compound 0.0316 µM, first compound 0.000999 µM
[2] = second compound 0.0316 µM, first compound 0.00316 µM
[3] = second compound 0.0316 µM, first compound 0.00999 µM
[4] = second compound 0.0316 µM, first compound 0.0316 µM
[5] = second compound 0.0316 µM, first compound 0.0999 µM
[6] = second compound 0.0316 µM, first compound 0.316 µM
[7] = second compound 0.1 µM, first compound 0.000999 µM
[8] = second compound 0.1 µM, first compound 0.00316 µM
[9] = second compound 0.1 µM, first compound 0.00999 µM
[10] = second compound 0.1 µM, first compound 0.0316 µM
[11] = second compound 0.1 µM, first compound 0.0999 µM
[12] = second compound 0.1 µM, first compound 0.316 µM
[13] = second compound 0.316 µM, first compound 0.000999 µM
[14] = second compound 0.316 µM, first compound 0.00316 µM
[15] = second compound 0.316 µM, first compound 0.00999 µM
[16] = second compound 0.316 µM, first compound 0.0316 µM
[17] = second compound 0.316 µM, first compound 0.0999 µM
[18] = second compound 0.316 µM, first compound 0.316 µM
[19] = second compound 1 µM, first compound 0.000999 µM
[20] = second compound 1 µM, first compound 0.00316 µM
[21] = second compound 1 µM, first compound 0.00999 µM
[22] = second compound 1 µM, first compound 0.0316 µM
[23] = second compound 1 µM, first compound 0.0999 µM
[24] = second compound 1 µM, first compound 0.316 µM
[25] = second compound 3.16 µM, first compound 0.000999 µM
[26] = second compound 3.16 µM, first compound 0.00316 µM
[27] = second compound 3.16 µM, first compound 0.00999 µM
[28] = second compound 3.16 µM, first compound 0.0316 µM
[29] = second compound 3.16 µM, first compound 0.0999 µM
[30] = second compound 3.16 µM, first compound 0.316 µM
[31] = second compound 10 µM, first compound 0.000999 µM
[32] = second compound 10 µM, first compound 0.00316 µM
[33] = second compound 10 µM, first compound 0.00999 µM
[34] = second compound 10 µM, first compound 0.0316 µM
[35] = second compound 10 µM, first compound 0.0999 µM
[36] = second compound 10 µM, first compound 0.316 µM
[37] = second compound 0.0316 µM, first compound 0.1 µM
[38] = second compound 0.0316 µM, first compound 1 µM
[39] = second compound 0.0316 µM, first compound 3.16 µM
[40] = second compound 0.0316 µM, first compound 10 µM
[41] = second compound 0.1 µM, first compound 0.1 µM
[42] = second compound 0.1 µM, first compound 1 µM
[43] = second compound 0.1 µM, first compound 3.16 µM
[44] = second compound 0.1 µM, first compound 10 µM
[45] = second compound 0.316 µM, first compound 0.1 µM
[46] = second compound 0.316 µM, first compound 1 µM
[47] = second compound 0.316 µM, first compound 3.16 µM
[48] = second compound 0.316 µM, first compound 10 µM
[49] = second compound 1 µM, first compound 0.1 µM
[50] = second compound 1 µM, first compound 1 µM
[51] = second compound 1 µM, first compound 3.16 µM
[52] = second compound 1 µM, first compound 10 µM
[53] = second compound 3.16 µM, first compound 0.1 µM
[54] = second compound 3.16 µM, first compound 1 µM
[55] = second compound 3.16 µM, first compound 3.16 µM
[56] = second compound 3.16 µM, first compound 10 µM
[57] = second compound 10 µM, first compound 0.1 µM
[58] = second compound 10 µM, first compound 1 µM
[59] = second compound 10 µM, first compound 3.16 µM
[60] = second compound 10 µM, first compound 10 µM

With `Cc1[nH]c2ccccc2c1CCNCc1ccc(/C=C/C(=O)NO)cc1` + Cc1[nH]c2ccc(F)cc2c1-c1nc2c3cccnc3c3ncccc3c2[nH]1 the IC50 (second compound 0.0316 µM) was 0.26 µM, the IC50 (second compound 0.1 µM) was > 0.316 µM and the IC50 (second compound 0.316 µM) was 0.299 µM. It also gave an IC50 (second compound 1 µM) of 0.304 µM, an IC50 (second compound 3.16 µM) of 0.308 µM and an IC50 (second compound 10 µM) of 0.25 µM. For the same molecule, the viability, T/C [1] was 98%, the viability, T/C [2] was 99.6% and the viability, T/C [3] was 103%. It also gave a viability, T/C [4] of 102%, a viability, T/C [5] of 98% and a viability, T/C [6] of 40.3%. For the same molecule, the viability, T/C [7] was 101%, the viability, T/C [8] was 97.5% and the viability, T/C [9] was 97.6%. It also gave a viability, T/C [10] of 97.2%, a viability, T/C [11] of 90.6% and a viability, T/C [12] of 50.3%. For the same molecule, the viability, T/C [13] was 108%, the viability, T/C [14] was 107% and the viability, T/C [15] was 98%. For the same molecule, the viability, T/C [16] was 106%, the viability, T/C [17] was 87.6% and the viability, T/C [18] was 47.8%. For the same molecule, the viability, T/C [19] was 106%, the viability, T/C [20] was 96.6% and the viability, T/C [21] was 93.6%. For the same molecule, the viability, T/C [22] was 105%, the viability, T/C [23] was 97.4% and the viability, T/C [24] was 48.3%. For the same molecule, the viability, T/C [25] was 96.8%, the viability, T/C [26] was 89.4% and the viability, T/C [27] was 81.4%. The viability, T/C [28] was 93.3%, the viability, T/C [29] was 89.4% and the viability, T/C [30] was 49.1%. The viability, T/C [31] was 99.1%, the viability, T/C [32] was 88% and the viability, T/C [33] was 89.4%. It also gave a viability, T/C [34] of 88.5%, a viability, T/C [35] of 82.2% and a viability, T/C [36] of 41.4%.
`C=CC(=O)N1CCN(c2nc(=O)n(-c3c(C)ccnc3C(C)C)c3nc(-c4c(O)cccc4F)c(F)cc23)C(C)C1` (stereo not drawn) + CN(C)c1ccc(Nc2c3ccc(NC(=O)CCN4CCCC4)cc3nc3cc(NC(=O)CCN4CCCC4)ccc23)cc1 was tested, and the IC50 (second compound 0.0316 µM) was > 10 µM, the IC50 (second compound 0.1 µM) was > 10 µM and the IC50 (second compound 0.316 µM) was > 10 µM. The IC50 (second compound 1 µM) was > 10 µM, the IC50 (second compound 3.16 µM) was > 10 µM and the IC50 (second compound 10 µM) was > 10 µM. The viability, T/C [4] was 106%, the viability, T/C [37] was 101% and the viability, T/C [6] was 105%. It also gave a viability, T/C [38] of 110%, a viability, T/C [39] of 122% and a viability, T/C [40] of 101%. It also gave a viability, T/C [10] of 99.7%, a viability, T/C [41] of 102% and a viability, T/C [12] of 98.2%. It also gave a viability, T/C [42] of 113%, a viability, T/C [43] of 115% and a viability, T/C [44] of 108%. It also gave a viability, T/C [16] of 96.1%, a viability, T/C [45] of 93.9% and a viability, T/C [18] of 110%. It also gave a viability, T/C [46] of 114%, a viability, T/C [47] of 111% and a viability, T/C [48] of 101%. For the same molecule, the viability, T/C [22] was 96.5%, the viability, T/C [49] was 86.5% and the viability, T/C [24] was 95.4%. For the same molecule, the viability, T/C [50] was 103%, the viability, T/C [51] was 113% and the viability, T/C [52] was 96.7%. The viability, T/C [28] was 88.3%, the viability, T/C [53] was 89.9% and the viability, T/C [30] was 103%. The viability, T/C [54] was 104%, the viability, T/C [55] was 106% and the viability, T/C [56] was 85.4%. For the same molecule, the viability, T/C [34] was 86.8%, the viability, T/C [57] was 82.9% and the viability, T/C [36] was 92.6%. The viability, T/C [58] was 90%, the viability, T/C [59] was 100% and the viability, T/C [60] was 69.2%.
Molecule `Cn1ncnc1[C@H]1c2n[nH]c(=O)c3cc(F)cc(c23)N[C@@H]1c1ccc(F)cc1` + Cc1cnc(CNC(=O)c2c(=O)c3ccc(N4CCCN(C)CC4)nc3n3c2sc2ccccc23)cn1 has an IC50 (second compound 0.0316 µM) of 0.145 µM, an IC50 (second compound 0.1 µM) of 0.0286 µM and an IC50 (second compound 0.316 µM) of 0.0058 µM. For the same molecule, the IC50 (second compound 1 µM) was < 0.000999 µM, the IC50 (second compound 3.16 µM) was < 0.000999 µM and the IC50 (second compound 10 µM) was < 0.000999 µM. The viability, T/C [1] was 92.1%, the viability, T/C [2] was 68.9% and the viability, T/C [3] was 77.1%. For the same molecule, the viability, T/C [4] was 68.2%, the viability, T/C [5] was 50.4% and the viability, T/C [6] was 42.5%. For the same molecule, the viability, T/C [7] was 71.2%, the viability, T/C [8] was 63% and the viability, T/C [9] was 53.7%. It also gave a viability, T/C [10] of 52.2%, a viability, T/C [11] of 43.2% and a viability, T/C [12] of 40.8%. The viability, T/C [13] was 53.9%, the viability, T/C [14] was 53.4% and the viability, T/C [15] was 48.7%. For the same molecule, the viability, T/C [16] was 45.4%, the viability, T/C [17] was 41.1% and the viability, T/C [18] was 41.6%. For the same molecule, the viability, T/C [19] was 47.8%, the viability, T/C [20] was 48.8% and the viability, T/C [21] was 38.5%. It also gave a viability, T/C [22] of 41.1%, a viability, T/C [23] of 38.5% and a viability, T/C [24] of 34.2%. For the same molecule, the viability, T/C [25] was 38.5%, the viability, T/C [26] was 39.5% and the viability, T/C [27] was 34.4%. The viability, T/C [28] was 34.6%, the viability, T/C [29] was 35.3% and the viability, T/C [30] was 33.4%. The viability, T/C [31] was 10.1%, the viability, T/C [32] was 9.37% and the viability, T/C [33] was 33.9%. For the same molecule, the viability, T/C [34] was 28.9%, the viability, T/C [35] was 9.31% and the viability, T/C [36] was 0.26%.
`CC1COCCN1c1cc(C2(S(C)(=N)=O)CC2)nc(-c2ccnc3[nH]ccc23)n1` (stereo not drawn) + Cc1cnc(CNC(=O)c2c(=O)c3ccc(N4CCCN(C)CC4)nc3n3c2sc2ccccc23)cn1 gave an IC50 (second compound 0.0316 µM) of 0.249 µM, an IC50 (second compound 0.1 µM) of 0.164 µM and an IC50 (second compound 0.316 µM) of 0.0979 µM. For the same molecule, the IC50 (second compound 1 µM) was < 0.0316 µM, the IC50 (second compound 3.16 µM) was < 0.0316 µM and the IC50 (second compound 10 µM) was < 0.0316 µM. The viability, T/C [4] was 87%, the viability, T/C [37] was 71.1% and the viability, T/C [6] was 44.9%. For the same molecule, the viability, T/C [38] was 25.8%, the viability, T/C [39] was 31.5% and the viability, T/C [40] was 17.7%. The viability, T/C [10] was 59.8%, the viability, T/C [41] was 57.9% and the viability, T/C [12] was 38.6%. The viability, T/C [42] was 23.7%, the viability, T/C [43] was 36% and the viability, T/C [44] was 17.9%. It also gave a viability, T/C [16] of 57.3%, a viability, T/C [45] of 48.9% and a viability, T/C [18] of 41.4%. The viability, T/C [46] was 27.2%, the viability, T/C [47] was 29.2% and the viability, T/C [48] was 22.5%. It also gave a viability, T/C [22] of 45.9%, a viability, T/C [49] of 46% and a viability, T/C [24] of 42.9%. For the same molecule, the viability, T/C [50] was 31.8%, the viability, T/C [51] was 37.1% and the viability, T/C [52] was 21.3%. It also gave a viability, T/C [28] of 36.9%, a viability, T/C [53] of 37.7% and a viability, T/C [30] of 36.2%. The viability, T/C [54] was 31.1%, the viability, T/C [55] was 33.7% and the viability, T/C [56] was 20.4%. For the same molecule, the viability, T/C [34] was 0.72%, the viability, T/C [57] was 0.21% and the viability, T/C [36] was 0.33%. The viability, T/C [58] was 0.28%, the viability, T/C [59] was 0.77% and the viability, T/C [60] was 1.29%.
